Assays:
PIKFYVE [1] = target: T1, PIKFYVE (Homo sapiens, UniProt Q9Y2I7); experiment: PIKFYVE assay (luciferase ADP-Glo kinase assay, Promega); format: biochemical; conditions: Table 3
Outline: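 ADP generated in the kinase reaction was detected by ADP-Glo luminescence (luciferase).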

PIKFYVE [2] = target: T1, PIKFYVE; experiment: Cell-based Pikfyve inhibition activity assay (EEA1 staining, mean vesicle size in BJ fibroblast cells); conditions: Table 4, 4 hours treatment, 3 μM Apilimod = 100% inhibition
Outline: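 BJ fibroblasts treated 4 h at 37° C with eleven 3-fold doses (0.03-3000 nM), then fixed and stained for EEA1. Confocal images (20×, 16 tiles/well) analysed for mean vesicle size. Normalised to 0.5% DMSO (0%) and 3 μM apilimod (100%); dose-response fitted with variable slope.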

T1 sequence (Q9Y2I7 whole entry): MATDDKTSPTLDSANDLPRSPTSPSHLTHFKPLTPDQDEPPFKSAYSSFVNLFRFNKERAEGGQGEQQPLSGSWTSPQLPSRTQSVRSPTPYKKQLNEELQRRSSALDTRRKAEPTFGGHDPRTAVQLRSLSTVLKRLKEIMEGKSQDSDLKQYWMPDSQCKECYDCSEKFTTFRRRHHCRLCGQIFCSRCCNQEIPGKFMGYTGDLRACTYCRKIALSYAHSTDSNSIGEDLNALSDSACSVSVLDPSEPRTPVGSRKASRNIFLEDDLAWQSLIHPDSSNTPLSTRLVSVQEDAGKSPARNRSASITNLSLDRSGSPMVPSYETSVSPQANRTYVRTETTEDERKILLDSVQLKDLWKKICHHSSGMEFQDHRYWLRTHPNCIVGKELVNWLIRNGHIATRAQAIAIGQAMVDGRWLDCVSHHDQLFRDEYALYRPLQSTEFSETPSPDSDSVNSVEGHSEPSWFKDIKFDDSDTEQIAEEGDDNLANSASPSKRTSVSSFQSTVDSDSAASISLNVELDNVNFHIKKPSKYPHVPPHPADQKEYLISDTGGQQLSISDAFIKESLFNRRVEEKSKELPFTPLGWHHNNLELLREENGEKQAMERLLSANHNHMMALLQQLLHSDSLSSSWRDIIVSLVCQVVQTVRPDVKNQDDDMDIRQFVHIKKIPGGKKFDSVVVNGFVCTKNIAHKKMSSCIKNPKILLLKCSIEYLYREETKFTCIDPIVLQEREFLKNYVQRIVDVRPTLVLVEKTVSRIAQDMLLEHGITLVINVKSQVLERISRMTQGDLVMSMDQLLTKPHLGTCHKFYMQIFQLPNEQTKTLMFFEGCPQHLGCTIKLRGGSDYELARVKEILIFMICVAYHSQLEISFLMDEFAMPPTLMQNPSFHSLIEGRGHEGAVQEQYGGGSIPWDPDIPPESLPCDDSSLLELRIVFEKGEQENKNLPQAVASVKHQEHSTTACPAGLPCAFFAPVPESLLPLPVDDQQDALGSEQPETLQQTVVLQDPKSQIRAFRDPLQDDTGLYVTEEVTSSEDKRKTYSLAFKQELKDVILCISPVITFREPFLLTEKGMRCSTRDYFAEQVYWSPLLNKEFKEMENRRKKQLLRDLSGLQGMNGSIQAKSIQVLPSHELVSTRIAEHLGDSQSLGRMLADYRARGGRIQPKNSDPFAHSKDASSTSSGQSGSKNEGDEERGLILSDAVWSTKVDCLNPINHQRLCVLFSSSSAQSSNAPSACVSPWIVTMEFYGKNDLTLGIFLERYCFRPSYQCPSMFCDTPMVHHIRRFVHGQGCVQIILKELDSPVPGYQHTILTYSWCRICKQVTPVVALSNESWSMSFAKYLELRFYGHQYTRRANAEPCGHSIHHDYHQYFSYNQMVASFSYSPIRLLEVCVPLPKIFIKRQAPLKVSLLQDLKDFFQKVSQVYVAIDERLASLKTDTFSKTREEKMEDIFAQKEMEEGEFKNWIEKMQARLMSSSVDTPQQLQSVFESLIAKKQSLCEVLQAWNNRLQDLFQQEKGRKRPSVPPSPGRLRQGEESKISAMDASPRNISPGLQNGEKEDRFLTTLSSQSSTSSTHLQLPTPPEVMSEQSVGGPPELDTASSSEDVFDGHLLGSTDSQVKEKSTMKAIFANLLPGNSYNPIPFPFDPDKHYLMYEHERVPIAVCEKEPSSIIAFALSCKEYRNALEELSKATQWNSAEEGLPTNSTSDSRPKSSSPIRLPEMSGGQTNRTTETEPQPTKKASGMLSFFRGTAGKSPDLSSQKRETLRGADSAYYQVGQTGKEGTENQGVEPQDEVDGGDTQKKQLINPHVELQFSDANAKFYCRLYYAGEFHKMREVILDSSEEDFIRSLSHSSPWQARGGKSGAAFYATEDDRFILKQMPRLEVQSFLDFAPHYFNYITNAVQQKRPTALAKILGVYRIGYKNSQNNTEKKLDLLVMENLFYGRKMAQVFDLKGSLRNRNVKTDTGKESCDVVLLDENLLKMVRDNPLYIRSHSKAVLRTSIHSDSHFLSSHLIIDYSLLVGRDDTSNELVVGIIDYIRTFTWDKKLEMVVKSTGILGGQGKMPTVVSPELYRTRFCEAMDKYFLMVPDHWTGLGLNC

| SMILES | IC50 (PIKFYVE [1]) [nM] | EC50 (PIKFYVE [2]) [nM] |
| --- | --- | --- |
| CCCc1ccn(-c2cc(N3CCOCC3)nc(OCCc3cnn(C)c3)n2)n1 [Compound 124, 4-(2-(2-(1-methyl-1H-pyrazol-4-yl)ethoxy)-6-(3-propyl-1H-pyrazol-1-yl)pyrimidin-4-yl)morpholine] | > 5000 | > 5000 |
| Cc1ccccc1-c1ccn(-c2cc(N3CCOCC3)nc(OCCc3cnn(C)c3)n2)n1 [Compound 125, 4-(2-(2-(1-methyl-1H-pyrazol-4-yl)ethoxy)-6-(3-(o-tolyl)-1H-pyrazol-1-yl)pyrimidin-4-yl)morpholine] | 10 to 100 | 100 to 500 |
| Cn1cc(CCOc2nc(N3CCOCC3)cc(-n3ccc(-c4cccc(C#N)c4)n3)n2)cn1 [Compound 126, 3-(1-(2-(2-(1-methyl-1H-pyrazol-4-yl)ethoxy)-6-morpholino-pyrimidin-4-yl)-1H-pyrazol-3-yl)benzonitrile] | 10 to 100 | 100 to 500 |
| Cc1cc(-c2ccccc2)nn1-c1cc(N2CCOCC2)nc(OCCc2cnn(C)c2)n1 [Compound 127, 4-(2-(2-(1-methyl-1H-pyrazol-4-yl)ethoxy)-6-(5-methyl-3-phenyl-1H-pyrazol-1-yl)pyrimidin-4-yl)morpholine] | < 3 | 20 to 100 |
| Cn1cc(CCOc2nc(N3CCOCC3)cc(-n3ccc(COc4ccccc4)n3)n2)cn1 [Compound 128, 4-(2-(2-(1-methyl-1H-pyrazol-4-yl)ethoxy)-6-(3-(phenoxymethyl)-1H-pyrazol-1-yl)pyrimidin-4-yl)morpholine] | 3 to 10 | 500 to 5000 |
| Cn1cc(CCOc2nc(N3CCOCC3)cc(-n3ccc(OCc4ccccc4F)n3)n2)cn1 [Compound 129, 4-(6-(3-((2-fluorobenzyl)oxy)-1H-pyrazol-1-yl)-2-(2-(1-methyl-1H-pyrazol-4-yl)ethoxy)pyrimidin-4-yl)morpholine] | 3 to 10 | 100 to 500 |
| COCC(O)c1nc(N2CCOCC2)cc(-n2ccc(-c3cccc(C)c3)n2)n1 (centres unmarked) [Compound 155, 2-methoxy-1-(4-morpholino-6-(3-(m-tolyl)-1H-pyrazol-1-yl)pyrimidin-2-yl)ethan-1-ol] | 3 to 10 | 100 to 500 |
| Cc1cccc(-c2ccn(-c3cc(N4CCOCC4)nc(OCC(=O)c4ccccc4)n3)n2)c1 [Compound 169] | 10 to 100 | 100 to 500 |
| Cn1cc(CCOc2nc(N3CCOCC3)cc(-n3ccc(C(=O)N4CCCCC4)n3)n2)cn1 [Compound 172, (1-(2-(2-(1-methyl-1H-pyrazol-4-yl)ethoxy)-6-morpholinopyrimidin-4-yl)-1H-pyrazol-3-yl)(piperidin-1-yl)methanone] | 100 to 5000 | > 5000 |
| Cn1cc(CCOc2nccc(N3CCOCC3)n2)cn1 [Compound 173, 4-(2-(2-(1-methyl-1H-pyrazol-4-yl)ethoxy)pyrimidin-4-yl)morpholine] | > 5000 | > 5000 |
| Cc1cccc(-c2ccn(-c3cc(N4CCOCC4)nc(OCC#N)n3)n2)c1 [Compound 174, 2-((4-morpholino-6-(3-(m-tolyl)-1H-pyrazol-1-yl)pyrimidin-2-yl)oxy)acetonitrile] | 3 to 10 | 100 to 500 |
| Cc1cccc(-c2ccn(-c3cc(N4CCOCC4)nc(OCCCC#N)n3)n2)c1 [Compound 175, 4-((4-morpholino-6-(3-(m-tolyl)-1H-pyrazol-1-yl)pyrimidin-2-yl)oxy)butanenitrile] | < 3 | 20 to 100 |
| Cc1cccc(-c2ccn(-c3cc(N4CCOCC4)nc(OCC4(C)COC4)n3)n2)c1 [Compound 176, 4-(2-((3-methyloxetan-3-yl)methoxy)-6-(3-(m-tolyl)-1H-pyrazol-1-yl)pyrimidin-4-yl)morpholine] | < 3 | 100 to 500 |
| COC(Cc1ccccc1)c1nc(N2CCOCC2)cc(-n2ccc(-c3ccccc3)n2)n1 (centres unmarked) [Compound 177, 4-(2-(1-methoxy-2-phenylethyl)-6-(3-phenyl-1H-pyrazol-1-yl)pyrimidin-4-yl)morpholine] | 10 to 100 | 500 to 5000 |
| Cn1cc(CCOc2nc(N3CCOCC3)cc(-n3ccc(C(=O)O)n3)n2)cn1 [Compound 178, 1-(2-(2-(1-methyl-1H-pyrazol-4-yl)ethoxy)-6-morpholinopyrimidin-4-yl)-1H-pyrazole-3-carboxylic acid] | 100 to 5000 | > 5000 |
| Cn1cc(CCOc2nc(N3CCOCC3)cc(-n3ccc(-c4cccc(CO)c4)n3)n2)cn1 [Compound 179, (3-(1-(2-(2-(1-methyl-1H-pyrazol-4-yl)ethoxy)-6-morpholinopyrimidin-4-yl)-1H-pyrazol-3-yl)phenyl)methanol] | < 3 | < 20 |
| Cc1cccc(-c2ccn(-c3cc(N4CCOCC4)nc(OCCc4cnn(CCO)c4)n3)n2)c1 [Compound 180, 2-(4-(2-((4-morpholino-6-(3-(m-tolyl)-1H-pyrazol-1-yl)pyrimidin-2-yl)oxy)ethyl)-1H-pyrazol-1-yl)ethan-1-ol] | < 3 | 20 to 100 |

| SMILES | IC50 (PIKFYVE [1]) [nM] | EC50 (PIKFYVE [2]) [nM] |
| --- | --- | --- |
| N#CCC(O)c1nc(N2CCOCC2)cc(-n2ccc(-c3ccccc3)n2)n1 (centres unmarked) [Compound 181, 3-hydroxy-3-(4-morpholino-6-(3-phenyl-1H-pyrazol-1-yl)pyrimidin-2-yl)propanenitrile] | 10 to 100 | 500 to 5000 |
| COC(CC#N)c1nc(N2CCOCC2)cc(-n2ccc(-c3ccccc3)n2)n1 (centres unmarked) [Compound 182, 3-methoxy-3-(4-morpholino-6-(3-phenyl-1H-pyrazol-1-yl)pyrimidin-2-yl)propanenitrile] | 10 to 100 | 500 to 5000 |
| OC(c1ccccc1)c1nc(N2CCOCC2)cc(-n2ccc(-c3ccccc3)n2)n1 (centres unmarked) [Compound 183, (4-morpholino-6-(3-phenyl-1H-pyrazol-1-yl)pyrimidin-2-yl)(phenyl)methanol] | 10 to 100 | 100 to 500 |
| Cn1cc(C(O)c2nc(N3CCOCC3)cc(-n3ccc(-c4ccccc4)n3)n2)cn1 (centres unmarked) [Compound 184, (1-methyl-1H-pyrazol-4-yl)(4-morpholino-6-(3-phenyl-1H-pyrazol-1-yl)pyrimidin-2-yl)methanol] | 10 to 100 | 100 to 500 |
| Cc1cccc(-c2ccn(-c3cc(N4CCOCC4)nc(NC(=O)Cc4cnn(C)c4)n3)n2)c1 [Compound 186, 2-(1-methyl-1H-pyrazol-4-yl)-N-(4-morpholino-6-(3-(m-tolyl)-1H-pyrazol-1-yl)pyrimidin-2-yl)acetamide] | < 3 | 100 to 500 |
| Cc1cccc(-c2ccn(-c3cc(N4CCOCC4)nc(NC(=O)CCc4cnn(C)c4)n3)n2)c1 [Compound 187] | < 3 | 20 to 100 |
| Cc1cccc(-c2ccn(-c3cc(N4CCOCC4)nc(NC(=O)CC4CC4)n3)n2)c1 [Compound 188, 2-cyclopropyl-N-(4-morpholino-6-(3-(m-tolyl)-1H-pyrazol-1-yl)pyrimidin-2-yl)acetamide] | < 3 | 100 to 500 |
| Cn1cc(CCOc2nc(N3CCOCC3)cc(-n3ccc(-c4ccccc4)n3)n2)cn1 [Compound 189, 4-(2-(2-(1-methyl-1H-pyrazol-4-yl)ethoxy)-6-(3-phenyl-1H-pyrazol-1-yl)pyrimidin-4-yl)morpholine] | < 3 | 20 to 100 |
| Cc1cccc(-c2ccn(-c3cc(N4CCOCC4)nc(OCCc4cnn(C)c4)n3)n2)n1 [Compound 190, 4-(2-(2-(1-methyl-1H-pyrazol-4-yl)ethoxy)-6-(3-(6-methylpyridin-2-yl)-1H-pyrazol-1-yl)pyrimidin-4-yl)morpholine] | 3 to 10 | 100 to 500 |
| Cn1cc(CCOc2nc(N3CCOCC3)cc(-n3ccc(-c4ccncc4)n3)n2)cn1 [Compound 191, 4-(2-(2-(1-methyl-1H-pyrazol-4-yl)ethoxy)-6-(3-(pyridin-4-yl)-1H-pyrazol-1-yl)pyrimidin-4-yl)morpholine] | 10 to 100 | > 5000 |
| CN(C)Cc1cccc(-c2ccn(-c3cc(N4CCOCC4)nc(OCCc4cnn(C)c4)n3)n2)c1 [Compound 193, N,N-dimethyl-1-(3-(1-(2-(2-(1-methyl-1H-pyrazol-4-yl)ethoxy)-6-morpholinopyrimidin-4-yl)-1H-pyrazol-3-yl)phenyl)methanamine] | < 3 | 100 to 500 |
| Cn1cc(CCOc2nc(N3CCOCC3)cc(-n3ccc(-c4ccccn4)n3)n2)cn1 [Compound 194, 4-(2-(2-(1-methyl-1H-pyrazol-4-yl)ethoxy)-6-(3-(pyridin-2-yl)-1H-pyrazol-1-yl)pyrimidin-4-yl)morpholine] | 3 to 10 | 100 to 500 |
| Cn1cc(CCOc2nc(N3CCOCC3)cc(-n3ccc(-c4cccc(F)c4)n3)n2)cn1 [Compound 195, 4-(6-(3-(3-fluorophenyl)-1H-pyrazol-1-yl)-2-(2-(1-methyl-1H-pyrazol-4-yl)ethoxy)pyrimidin-4-yl)morpholine] | < 3 | 20 to 100 |
| Cc1ccc(C)c(-c2ccn(-c3cc(N4CCOCC4)nc(OCCc4cnn(C)c4)n3)n2)c1 [Compound 197, 4-(6-(3-(2,5-dimethylphenyl)-1H-pyrazol-1-yl)-2-(2-(1-methyl-1H-pyrazol-4-yl)ethoxy)pyrimidin-4-yl)morpholine] | 3 to 10 | 100 to 500 |
| COCc1cccc(-c2ccn(-c3cc(N4CCOCC4)nc(OCCc4cnn(C)c4)n3)n2)c1 [Compound 200, 4-(6-(3-(3-(methoxymethyl)phenyl)-1H-pyrazol-1-yl)-2-(2-(1-methyl-1H-pyrazol-4-yl)ethoxy)pyrimidin-4-yl)morpholine] | < 3 | < 20 |
| Cn1nccc1CC(O)c1nc(N2CCOCC2)cc(-n2ccc(-c3ccccc3)n2)n1 (centres unmarked) [Compound 201, 2-(1-methyl-1H-pyrazol-5-yl)-1-(4-morpholino-6-(3-phenyl-1H-pyrazol-1-yl)pyrimidin-2-yl)ethan-1-ol] | 10 to 100 | 500 to 5000 |
| Cc1cc(-c2ccccc2)nn1-c1cc(N2CCOCC2)nc(N)n1 [Compound 202, 4-(5-methyl-3-phenyl-1H-pyrazol-1-yl)-6-morpholinopyrimidin-2-amine] | 100 to 5000 | 500 to 5000 |
